Molecules are shown by their SMILES. Where only a bound is given, the exact number is not on record here.

In the first test the test system is AsPC-1 cells. Description: Cell Proliferation Assay, AsPC-1 (CellTiter-Glo 2.0 viability). It counts as cell-based. The note with it: AsPC-1 pancreatic cancer (KRAS G12D mutation); 72 hours. As to the method:
Test Example 3: Cell Proliferation Assay
Cell viability testing of test compounds in AsPC-1 pancreatic cancer (KRAS G12D mutation) or SW480 colon cancer (KRAS G12V mutation) cells for 72 hours
The reference compound Staurosporine was purchased from Sigma-Aldrich (Saint Louis, MI), and CellTiter-Glo® 2.0 Luminescent cell viability assay reagent (cat #G9243) was purchased from Promega (Madison, WI). AsPC-1 and SW480 cell lines were purchased from American Type Culture Collection (Manassas, VA). AsPC-1 cells were cultured with RPMI-1640 (ATCC, cat #30-2001) and SW480 cells were cultured with DMEM (ATCC cat #30-2002).
A medium supplemented with 10% FBS (Sigma-Aldrich, cat #F2442) and 100 µg/mL of penicillin-streptomycin (Sigma-Aldrich, cat #P4333) was used. Cells were cultured at 37 °C in a humidified atmosphere of 5% CO2 and 95% air.
• 1. The test compound and reference compound, Staurosporine were dissolved in DMSO solution to prepare 20 mM (test compound) and 10 mM (control compound, Staurosporine) in the Source Plate and diluted with DMSO to 3-fold and 10 doses. • 2. From the Source Plate, 10 volumes of 125 nL test compound or 25 nL reference compound were dispensed into wells of a 384-well culture plate (VWR, cat #82050-076) using Echo 655. • 3. 25 μL of culture medium including 2000 AsPC-1 or SW480 cells was dispensed into each 384-well cell culture plate. • 4. Cells were cultured with the compound for 72 hours at 37 °C and 5% CO2 conditions. • 5. 25 μL of CellTiter-Glo 2.0 reagent was added to each well of the plate. • 6. The contents were mixed for 2 minutes on an orbital shaker, and the luminescence signal was stabilized at room temperature for 15 minutes. • 7. Luminescence signals were measured with an Envision 2104 Multilabel Reader (PerkinElmer, Santa Clara, CA), and the number of surviving cells was determined through quantification of ATP present in each culture. • 8. IC50 values were calculated based on the Sigmoidal dose-response equation in the GraphPad Prism 4 program.
Background: ATP-based viability assays read luminescence as a measure of living cells.
By IC50 is commonly meant the concentration needed to halve the response being measured. Lower therefore signals greater potency in that assay. The compound `C#Cc1c(F)ccc2cc(O)cc(-c3nc4c5c(nc(OC[C@@]67CCCN6C[C@H](F)C7)nc5c3F)N([C@@H](C)c3cccnc3N)CCO4)c12` [Example 13b, 4-(10-((S)-1-(2-aminopyridin-3-yl)ethyl)-4-fluoro-2-(((2R,7aS)-2-fluorotetrahydro-1H-pyrrolizin-7a(5H)-yl)methoxy)-9,10-dihydro-8H-7-oxa-1,3,6,10-tetraazacyclohepta[de]naphthalen-5-yl)-5-ethynyl-6-fluoronaphthalen-2-ol] returned an IC50 above 10 µM.

Staying with this test, now noted: Homo sapiens, ASPC1, 72 h, AsPC-1 pancreatic cancer (KRAS G12D mutation).
The compound `C#Cc1c(F)ccc2cc(O)cc(-c3nc4c5c(nc(OC[C@@]67CCCN6C[C@H](F)C7)nc5c3F)N(C(C)c3cccnc3N)C[C@H](C)O4)c12` (mixture of isomers) [Example 6, 4-((8S)-10-(1-(2-aminopyridin-3-yl)ethyl)-4-fluoro-2-(((2R,7aS)-2-fluorotetrahydro-1H-pyrrolizin-7a(5H)-yl)methoxy)-8-methyl-9,10-dihydro-8H-7-oxa-1,3,6,10-tetraazacyclohepta[de]naphthalen-5-yl)-5-ethynyl-6-fluoronaphthalen-2-ol] yielded an IC50 of 1 to 10 µM. The same measure, in the same setting: then `C#Cc1c(F)ccc2cc(O)cc(-c3nc4c5c(nc(OCC67CC(=C)CN6CC(=C)C7)nc5c3F)N(C(C)c3cccnc3N)C[C@H](C)O4)c12` (stereo partly drawn) [Example 4, 4-((8S)-10-(1-(2-aminopyridin-3-yl)ethyl)-2-((2,6-dimethylenetetrahydro-1H-pyrrolizin-7a(5H)-yl)methoxy)-4-fluoro-8-methyl-9,10-dihydro-8H-7-oxa-1,3,6,10-tetraazacyclohepta[de]naphthalen-5-yl)-5-ethynyl-6-fluoronaphthalen-2-ol], with above 10 µM. In the case of `C#Cc1c(F)ccc2cc(O)cc(-c3nc4c5c(nc(OCC6(CN7CCOCC7)CC6)nc5c3F)N(C(C)c3cccnc3N)C[C@H](C)O4)c12` (stereo partly drawn) [Example 5, 4-((8S)-10-(1-(2-aminopyridin-3-yl)ethyl)-4-fluoro-8-methyl-2-((1-(morpholinomethyl)cyclopropyl)methoxy)-9,10-dihydro-8H-7-oxa-1,3,6,10-tetraazacyclohepta[de]naphthalen-5-yl)-5-ethynyl-6-fluoronaphthalen-2-ol], the IC50 was above 10 µM.

On to `C#Cc1c(F)ccc2cc(O)cc(-c3nc4c5c(nc(OC[C@@]67CCCN6C[C@H](F)C7)nc5c3F)N([C@@H](C)c3cccnc3N)C[C@H](C)O4)c12` [Example 6b, 4-((S)-10-((S)-1-(2-aminopyridin-3-yl)ethyl)-4-fluoro-2-(((2R,7aS)-2-fluorotetrahydro-1H-pyrrolizin-7a(5H)-yl)methoxy)-8-methyl-9,10-dihydro-8H-7-oxa-1,3,6,10-tetraazacyclohepta[de]naphthalen-5-yl)-5-ethynyl-6-fluoronaphthalen-2-ol], for which the IC50 was above 10 µM. Same read-out and setting: then `C#Cc1c(F)ccc2cc(O)cc(-c3nc4c5c(nc(OCC6CC(F)(F)CN6C)nc5c3F)N(C(C)c3cccnc3N)C[C@H](C)O4)c12` (stereo partly drawn) [Example 7, 4-((8S)-10-(1-(2-aminopyridin-3-yl)ethyl)-2-((4,4-difluoro-1-methylpyrrolidin-2-yl)methoxy)-4-fluoro-8-methyl-9,10-dihydro-8H-7-oxa-1,3,6,10-tetraazacyclohepta[de]naphthalen-5-yl)-5-ethynyl-6-fluoronaphthalen-2-ol], with above 10 µM; and `C#Cc1c(F)ccc2cc(O)cc(-c3nc4c5c(nc(OC[C@@H]6CCN6CC(F)F)nc5c3F)N(C(C)c3cccnc3N)C[C@H](C)O4)c12` (stereo partly drawn) [Example 8, 4-((8S)-10-(1-(2-aminopyridin-3-yl)ethyl)-2-(((S)-1-(2,2-difluoroethyl)azetidin-2-yl)methoxy)-4-fluoro-8-methyl-9,10-dihydro-8H-7-oxa-1,3,6,10-tetraazacyclohepta[de]naphthalen-5-yl)-5-ethynyl-6-fluoronaphthalen-2-ol], with above 10 µM. In the case of `C#Cc1c(F)ccc2cc(O)cc(-c3nc4c5c(nc(OCC67COC(C6)C7)nc5c3F)N(C(C)c3cccnc3N)C[C@H](C)O4)c12` (stereo partly drawn) [Example 9, 4-((8S)-2-((2-oxabicyclo[2.1.1]hexan-4-yl)methoxy)-10-(1-(2-aminopyridin-3-yl)ethyl)-4-fluoro-8-methyl-9,10-dihydro-8H-7-oxa-1,3,6,10-tetraazacyclohepta[de]naphthalen-5-yl)-5-ethynyl-6-fluoronaphthalen-2-ol], the IC50 was 1 to 10 µM.

Regarding `C[C@H]1CN([C@@H](C)c2cccnc2N)c2nc(OC[C@@]34CCCN3C[C@H](F)C4)nc3c(F)c(-c4cc(O)cc5ccc(F)c(F)c45)nc(c23)O1` [Example 10b, 4-((S)-10-((S)-1-(2-aminopyridin-3-yl)ethyl)-4-fluoro-2-(((2R,7aS)-2-fluorotetrahydro-1H-pyrrolizin-7a(5H)-yl)methoxy)-8-methyl-9,10-dihydro-8H-7-oxa-1,3,6,10-tetraazacyclohepta[de]naphthalen-5-yl)-5,6-difluoronaphthalen-2-ol], the IC50 was above 10 µM.

As to `CC(c1cccnc1N)N1C[C@H](C)Oc2nc(-c3cc(O)cc(Cl)c3C3CC3)c(F)c3nc(OC[C@@]45CCCN4C[C@H](F)C5)nc1c23` (stereo partly drawn) [Example 11, 3-((8S)-10-(1-(2-aminopyridin-3-yl)ethyl)-4-fluoro-2-(((2R,7aS)-2-fluorotetrahydro-1H-pyrrolizin-7a(5H)-yl)methoxy)-8-methyl-9,10-dihydro-8H-7-oxa-1,3,6,10-tetraazacyclohepta[de]naphthalen-5-yl)-5-chloro-4-cyclopropylphenol], the IC50 is above 10 µM. `CCc1c(F)ccc2cc(O)cc(-c3nc4c5c(nc(OC[C@@]67CCCN6C[C@H](F)C7)nc5c3F)N([C@@H](C)c3cccnc3N)CCO4)c12` [Example 14b, 4-(10-((S)-1-(2-aminopyridin-3-yl)ethyl)-4-fluoro-2-(((2R,7aS)-2-fluorotetrahydro-1H-pyrrolizin-7a(5H)-yl)methoxy)-9,10-dihydro-8H-7-oxa-1,3,6,10-tetraazacyclohepta[de]naphthalen-5-yl)-5-ethyl-6-fluoronaphthalen-2-ol] came in with an IC50 of 1 to 10 µM. In turn, `C#Cc1c(F)ccc2cc(O)cc(-c3nc4c5c(nc(OC[C@@H]6CC(F)(F)CN6C)nc5c3F)N(C(C)c3cccnc3N)CCO4)c12` (stereo partly drawn) [Example 15, 4-(10-(1-(2-aminopyridin-3-yl)ethyl)-2-(((S)-4,4-difluoro-1-methylpyrrolidin-2-yl)methoxy)-4-fluoro-9,10-dihydro-8H-7-oxa-1,3,6,10-tetraazacyclohepta[de]naphthalen-5-yl)-5-ethynyl-6-fluoronaphthalen-2-ol] registered an IC50 of 1 to 10 µM.

As to `C=C1CN2CC(=C)CC2(COc2nc3c4c(nc(-c5cc(O)cc6ccc(F)c(CC)c56)c(F)c4n2)OCCN3C(C)c2cccnc2N)C1` (stereo not shown) [Example 19, 4-(10-(1-(2-aminopyridin-3-yl)ethyl)-2-((2,6-dimethylenetetrahydro-1H-pyrrolizin-7a(5H)-yl)methoxy)-4-fluoro-9,10-dihydro-8H-7-oxa-1,3,6,10-tetraazacyclohepta[de]naphthalen-5-yl)-5-ethyl-6-fluoronaphthalen-2-ol], the IC50 fell in the range of 1 to 10 µM. Same read-out and setting: as for `CCc1c(F)ccc2cc(O)cc(-c3nc4c5c(nc(OC[C@@]67CCCN6C[C@H](F)C7)nc5c3F)N(C(C)c3ccccc3N)CCO4)c12` (stereo partly drawn) [Example 21, 4-(10-(1-(2-aminophenyl)ethyl)-4-fluoro-2-(((2R,7aS)-2-fluorotetrahydro-1H-pyrrolizin-7a(5H)-yl)methoxy)-9,10-dihydro-8H-7-oxa-1,3,6,10-tetraazacyclohepta[de]naphthalen-5-yl)-5-ethyl-6-fluoronaphthalen-2-ol], the figure is above 10 µM; as for `CCc1c(F)ccc2cc(O)cc(-c3nc4c5c(nc(OCC6(CN7CC[C@@H](F)C7)CC6)nc5c3F)N(C(C)c3cccnc3N)CCO4)c12` (stereo partly drawn) [Example 26, 4-(10-(1-(2-aminopyridin-3-yl)ethyl)-4-fluoro-2-((1-(((R)-3-fluoropyrrolidin-1-yl)methyl)cyclopropyl)methoxy)-9,10-dihydro-8H-7-oxa-1,3,6,10-tetraazacyclohepta[de]naphthalen-5-yl)-5-ethyl-6-fluoronaphthalen-2-ol], 1 to 10 µM. The compound `CCc1c(F)ccc2cc(O)cc(-c3nc4c5c(nc(OC[C@@H]6CCCN6CC(F)F)nc5c3F)N(C(C)c3cccnc3N)CCO4)c12` (stereo partly drawn) [Example 27, 4-(10-(1-(2-aminopyridin-3-yl)ethyl)-2-(((S)-1-(2,2-difluoroethyl)pyrrolidin-2-yl)methoxy)-4-fluoro-9,10-dihydro-8H-7-oxa-1,3,6,10-tetraazacyclohepta[de]naphthalen-5-yl)-5-ethyl-6-fluoronaphthalen-2-ol] gave an IC50 above 10 µM.

The values are drawn from patent US20260374781A1, “NOVEL TRIHETEROCYCLIC COMPOUNDS” (IDENCE CO., LTD., priority 2022, published 2026).
